Assay results as given in ChEMBL document CHEMBL1152036, “Acyclic nucleoside triphosphate analogs as terminators in biocatalytic DNA replication” (Bioorg Med Chem Lett, 1997).

Key:
[1] = tested on: Nucleic Acid; assay: The compound was evaluated as substrate for DNA replicating enzyme, Bst DNA polymerase; No incorporation; format: nucleic-acid assay
[2] = tested on: Nucleic Acid; assay: The compound was evaluated as substrate for DNA replicating enzyme, rTth DNA polymerase; No incorporation; format: nucleic-acid assay
[3] = tested on: HIV-1 reverse transcriptase (Human immunodeficiency virus 1); assay: The compound was evaluated as substrate for DNA replicating enzyme, HIV-1 RT at a concentration of 1 mM; Not assayed
[4] = tested on: Nucleic Acid; assay: The compound was evaluated as substrate for DNA replicating enzyme, AmpliTaq FS DNA polymerase at a concentration of 100 uM; Termination; format: nucleic-acid assay
[5] = molecular target: DNA polymerase I, thermostable (Thermus aquaticus) (UniProt P19821); assay: The compound was evaluated as substrate for DNA replicating enzyme, Taq DNA polymerase at a concentration of 100 uM; Termination
[6] = tested on: Nucleic Acid; assay: The compound was evaluated as substrate for DNA replicating enzyme, AmpliTaq DNA polymerase; No incorporation; format: nucleic-acid assay
[7] = tested on: HIV-1 reverse transcriptase (Human immunodeficiency virus 1); assay: The compound was evaluated as substrate for DNA replicating enzyme, HIV-1 RT at a concentration of 1 mM; Termination
[8] = tested on: Nucleic Acid; assay: The compound was evaluated as substrate for DNA replicating enzyme, AmpliTaq FS DNA polymerase at a concentration of 1 mM; Termination; format: nucleic-acid assay
[9] = molecular target: DNA polymerase I, thermostable (Thermus aquaticus) (UniProt P19821); assay: The compound was evaluated as substrate for DNA replicating enzyme, Taq DNA polymerase at a concentration of 1 mM; Termination

Measured: Activity

Chain of DNA polymerase I, thermostable (Thermus aquaticus) (P19821 whole entry): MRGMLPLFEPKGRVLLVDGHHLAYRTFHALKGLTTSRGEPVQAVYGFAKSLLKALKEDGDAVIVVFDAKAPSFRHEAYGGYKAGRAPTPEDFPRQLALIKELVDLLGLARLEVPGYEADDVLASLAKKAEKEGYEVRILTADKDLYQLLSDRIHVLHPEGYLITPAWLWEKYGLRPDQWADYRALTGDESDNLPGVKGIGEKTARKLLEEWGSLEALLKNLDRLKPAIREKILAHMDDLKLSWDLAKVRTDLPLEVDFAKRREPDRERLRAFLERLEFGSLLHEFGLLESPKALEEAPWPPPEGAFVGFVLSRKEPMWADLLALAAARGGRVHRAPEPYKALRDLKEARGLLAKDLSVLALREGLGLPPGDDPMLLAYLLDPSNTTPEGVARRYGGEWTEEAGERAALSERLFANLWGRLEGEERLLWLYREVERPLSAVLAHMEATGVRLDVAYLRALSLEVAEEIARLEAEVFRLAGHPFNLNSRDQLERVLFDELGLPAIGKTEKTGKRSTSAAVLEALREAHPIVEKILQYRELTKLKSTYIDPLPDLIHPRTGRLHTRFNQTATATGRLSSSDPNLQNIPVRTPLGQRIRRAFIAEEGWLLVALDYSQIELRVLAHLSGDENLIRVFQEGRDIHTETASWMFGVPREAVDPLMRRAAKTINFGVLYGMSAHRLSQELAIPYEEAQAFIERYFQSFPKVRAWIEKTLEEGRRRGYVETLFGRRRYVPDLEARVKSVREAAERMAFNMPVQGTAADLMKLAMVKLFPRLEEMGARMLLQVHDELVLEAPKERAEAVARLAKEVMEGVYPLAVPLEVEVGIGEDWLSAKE

CN(CCOP(=O)(O)OP(=O)(O)OP(=O)(O)O)C(=O)Cn1cnc2c(N)ncnc21
inactive: [1] No incorporation | [2] No incorporation | [3] No incorporation | [4] No incorporation | [5] No incorporation

Cc1cn(CC(=O)N(C)CCOP(=O)(O)OP(=O)(O)OP(=O)(O)O)c(=O)[nH]c1=O
inactive: [1] No incorporation | [6] No incorporation | [7] No incorporation | [2] No incorporation | [8] No incorporation | [9] No incorporation
